For test [1], the target named is Serine/threonine-protein kinase DCLK2 (Homo sapiens) (UniProt Q8N568). The experiment in a line: Inhibition of recombinant human DCAMKL2 (376 to end residues) assessed as residual activity at 10 uM using KKLNRTLSFAEPG as substrate measured after 40 mins in presence of [gamma33P]ATP by scintillation counting method.
Test [2] has as its system Receptor-type tyrosine-protein kinase FLT3 (Homo sapiens), P36888 [D835Y]. The experiment in a line: Inhibition of recombinant human Flt3 D835Y mutant (564 to end residues) assessed as residual activity at 10 uM using EAIYAAPFAKKK as substrate measured after 40 mins in presence of [gamma33P]ATP by scintillation counting method.
For the next test, the species on record is Mus musculus. The experiment in a line: Inhibition of recombinant mouse ARG M982V/A562 mutant (27 to end residues) assessed as residual activity at 10 uM using EAIYAAPFAKKK as substrate measured after 40 mins in presence of [gamma33P]ATP by scintillation counting method.
Test [3] has as its system eIF-2-alpha kinase GCN2 (Homo sapiens), Q9P2K8 [E556G]. The experiment in a line: Inhibition of recombinant full-length human GCN2 E556G mutant assessed as residual activity at 10 uM using RSRSRSRSRSRSRSR as substrate measured after 40 mins in presence of [gamma33P]ATP by scintillation counting method.
The test system of the next test is HCT-116. Kind of test: Induction of apoptosis in human HCT116 cells measured after 48 hrs by Annexin V-FITC/propidium iodide staining-based flow cytometric analysis. In kind it is functional, cell-based. A general note: Flow cytometry measures light scatter and fluorescence of single cells or particles in a stream.
The target in test [4] is [Pyruvate dehydrogenase (acetyl-transferring)] kinase isozyme 2, mitochondrial (Homo sapiens) (UniProt Q15119). The experiment in a line: Inhibition of human PDHK2 assessed as residual activity at 10 uM by radiometric method.
The target in test [5] is Serine/threonine-protein kinase PLK2 (Homo sapiens) (UniProt Q9NYY3). The experiment in a line: Inhibition of human Snk (65 to 409 residues) using casein as substrate measured after 40 mins in presence of [gamma33P]ATP by scintillation counting method. Also on record: scale not given: the % may be the effect or the level left.
Test [6] addresses G protein-coupled receptor kinase 3 (Homo sapiens) (UniProt P35626). Kind of test: Inhibition of recombinant full-length human GRK3 assessed as residual activity at 10 uM using casein as substrate measured after 40 mins in presence of [gamma33P]ATP by scintillation counting method.
Test [7] has as its target Serine/threonine-protein kinase 17B (Homo sapiens) (UniProt O94768). Kind of test: Inhibition of recombinant full-length human DRAK2 assessed as residual activity at 10 uM using KKRPQRRYSNVF as substrate measured after 120 mins in presence of [gamma33P]ATP by scintillation counting method.
Test [8] relates to Receptor tyrosine-protein kinase erbB-2 (Homo sapiens), P04626 [G778D]. Kind of test: Inhibition of recombinant human ErbB2 G778D mutant (676 to end residues) assessed as residual activity at 10 uM using poly (Glu, Tyr) 4:1 as substrate measured after 40 mins in presence of [gamma33P]ATP by scintillation counting method.
For another test, the species on record is Homo sapiens. The experiment in a line: Inhibition of recombinant full-length human PI3K p120gamma R459Q mutant assessed as residual activity at 10 uM using phosphatidylinositol-4, 5-bisphosphate as substrate measured after 40 mins by fluorescence assay.
The test system of test [9] is SNF-related serine/threonine-protein kinase (Homo sapiens), Q9NRH2 [UNDEFINED MUTATION]. Kind of test: Inhibition of human SNRK E97G/P116A mutant (65 to 409 residues) using KKLRRTLSFAEPG as substrate measured after 40 mins in presence of [gamma33P]ATP by scintillation counting method. Also on record: scale not given: the % may be the effect or the level left.
Sequence of SNF-related serine/threonine-protein kinase (Homo sapiens), Q9NRH2 [UNDEFINED MUTATION] (Q9NRH2 whole entry, looked up, stated change not applied, the tested form may be a part): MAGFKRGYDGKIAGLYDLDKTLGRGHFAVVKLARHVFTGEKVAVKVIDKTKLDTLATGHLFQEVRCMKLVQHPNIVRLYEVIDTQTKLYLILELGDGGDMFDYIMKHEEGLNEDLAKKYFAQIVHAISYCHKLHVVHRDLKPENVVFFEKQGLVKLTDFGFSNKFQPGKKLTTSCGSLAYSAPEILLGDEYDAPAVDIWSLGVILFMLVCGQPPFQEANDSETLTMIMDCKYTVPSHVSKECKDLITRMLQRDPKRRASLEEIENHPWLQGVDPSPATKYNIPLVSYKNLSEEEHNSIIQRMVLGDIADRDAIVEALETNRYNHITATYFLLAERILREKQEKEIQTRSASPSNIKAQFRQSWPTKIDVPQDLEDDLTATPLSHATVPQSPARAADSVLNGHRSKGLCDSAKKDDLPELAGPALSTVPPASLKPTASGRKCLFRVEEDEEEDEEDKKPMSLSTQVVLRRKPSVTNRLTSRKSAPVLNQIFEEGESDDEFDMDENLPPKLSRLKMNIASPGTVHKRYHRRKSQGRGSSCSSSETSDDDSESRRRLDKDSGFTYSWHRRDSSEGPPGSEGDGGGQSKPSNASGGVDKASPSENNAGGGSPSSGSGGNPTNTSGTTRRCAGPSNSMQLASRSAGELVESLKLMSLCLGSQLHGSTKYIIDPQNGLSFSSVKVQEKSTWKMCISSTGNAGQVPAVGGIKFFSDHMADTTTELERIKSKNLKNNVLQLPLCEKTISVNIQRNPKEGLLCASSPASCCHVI
In test [10] the target is Eukaryotic translation initiation factor 2-alpha kinase 1 (Homo sapiens) (UniProt Q9BQI3). Kind of test: Inhibition of recombinant human HRI (140 to end residues) assessed as residual activity at 10 uM using RSRSRSRSRSRSRSR as substrate measured after 120 mins in presence of [gamma33P]ATP by scintillation counting method.
Sequence of Eukaryotic translation initiation factor 2-alpha kinase 1 (Homo sapiens) (Q9BQI3 whole entry, the tested form may be a part): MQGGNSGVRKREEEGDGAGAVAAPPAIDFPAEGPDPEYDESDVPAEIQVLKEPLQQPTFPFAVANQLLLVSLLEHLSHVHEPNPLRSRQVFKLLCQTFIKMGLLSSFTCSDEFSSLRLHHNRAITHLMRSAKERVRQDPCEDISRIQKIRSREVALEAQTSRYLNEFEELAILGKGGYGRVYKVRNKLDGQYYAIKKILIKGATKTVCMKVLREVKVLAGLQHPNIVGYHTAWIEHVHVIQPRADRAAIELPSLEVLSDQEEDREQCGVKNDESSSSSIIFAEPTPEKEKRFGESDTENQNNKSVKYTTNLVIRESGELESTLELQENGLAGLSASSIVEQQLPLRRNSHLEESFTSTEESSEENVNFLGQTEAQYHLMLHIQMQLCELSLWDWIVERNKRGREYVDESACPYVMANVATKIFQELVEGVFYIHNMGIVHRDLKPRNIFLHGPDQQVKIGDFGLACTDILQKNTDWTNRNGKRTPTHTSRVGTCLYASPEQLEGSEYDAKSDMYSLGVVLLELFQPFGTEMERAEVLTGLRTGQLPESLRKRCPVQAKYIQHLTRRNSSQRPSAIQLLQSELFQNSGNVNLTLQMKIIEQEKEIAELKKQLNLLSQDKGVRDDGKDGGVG
Test [11] addresses Tau-tubulin kinase 2 (Homo sapiens) (UniProt Q6IQ55). The experiment in a line: Inhibition of human TTBK2 (1 to 331 residues) using Casein as substrate measured after 40 mins in presence of [gamma33P]ATP by scintillation counting method. Also on record: scale not given: the % may be the effect or the level left.
Test [12] deals with Transient receptor potential cation channel subfamily M member 7 (Homo sapiens) (UniProt Q96QT4). Kind of test: Inhibition of recombinant human CHAK1 (1180 to end residues) assessed as residual activity at 10 uM using myelin basic protein as substrate measured after 40 mins in presence of [gamma33P]ATP by scintillation counting method.
For test [13], the target named is Serine/threonine-protein kinase SIK1 (Homo sapiens) (UniProt P57059). The experiment in a line: Inhibition of human SIK (1 to 281 residues) using AMARAASAAALARRR as substrate measured after 40 mins in presence of [gamma33P]ATP by scintillation counting method. Also on record: scale not given: the % may be the effect or the level left.
Sequence of Serine/threonine-protein kinase SIK1 (Homo sapiens) (P57059 whole entry, the tested form may be a part): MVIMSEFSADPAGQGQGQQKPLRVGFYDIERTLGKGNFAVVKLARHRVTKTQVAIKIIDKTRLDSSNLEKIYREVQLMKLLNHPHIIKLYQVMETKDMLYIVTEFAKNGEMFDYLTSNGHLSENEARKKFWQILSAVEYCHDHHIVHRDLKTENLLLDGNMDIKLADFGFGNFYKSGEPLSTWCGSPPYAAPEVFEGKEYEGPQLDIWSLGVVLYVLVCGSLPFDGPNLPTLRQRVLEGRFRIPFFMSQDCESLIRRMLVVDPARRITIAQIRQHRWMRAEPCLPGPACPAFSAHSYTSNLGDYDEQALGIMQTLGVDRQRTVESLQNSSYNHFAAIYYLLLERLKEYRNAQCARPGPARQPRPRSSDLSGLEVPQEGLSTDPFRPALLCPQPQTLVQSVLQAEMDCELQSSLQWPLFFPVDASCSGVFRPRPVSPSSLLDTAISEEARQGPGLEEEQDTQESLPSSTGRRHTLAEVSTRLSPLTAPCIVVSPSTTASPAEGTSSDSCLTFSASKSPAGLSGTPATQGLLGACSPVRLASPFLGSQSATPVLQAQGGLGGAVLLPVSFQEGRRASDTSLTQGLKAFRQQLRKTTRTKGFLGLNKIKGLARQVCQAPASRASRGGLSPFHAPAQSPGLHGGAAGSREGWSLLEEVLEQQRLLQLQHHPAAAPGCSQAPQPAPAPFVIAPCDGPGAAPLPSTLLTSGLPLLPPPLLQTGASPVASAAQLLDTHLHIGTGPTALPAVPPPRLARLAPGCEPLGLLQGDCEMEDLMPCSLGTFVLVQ
The target in test [14] is Tyrosine-protein kinase JAK2 (Homo sapiens) (UniProt O60674). Kind of test: Inhibition of recombinant human JAK2 (808 to end residues) assessed as residual activity at 10 uM using KTFCGTPEYLAPEVRREPRILSEEEQEMFRDFDYIADWC as substrate measured after 40 mins in presence of [gamma33P]ATP by scintillation counting method.
For the next test, the system named is A549. Kind of test: Antiproliferative activity against human A549 cells assessed as reduction in cell viability after 72 hrs by MTT assay. To be noted: A549, 72 h. In kind it is functional, cell-based. For orientation: Tetrazolium assays rely on reduction of a dye to a coloured formazan, in cell work by metabolically active cells.
Test [15] addresses Cyclin-dependent kinase-like 3 (Homo sapiens) (UniProt Q8IVW4). The experiment in a line: Inhibition of recombinant human full-length CDKL3 (1 to 303 residues) assessed as residual activity at 10 uM using RRRFRPASPLRGP as substrate measured after 120 mins in presence of [gamma33P]ATP by scintillation counting method.
Test [16] addresses STE20-like serine/threonine-protein kinase (Homo sapiens) (UniProt Q9H2G2). Kind of test: Inhibition of human SLK (1 to 373 residues) using RLGRDKYKTLRQIRQ as substrate measured after 40 mins in presence of [gamma33P]ATP by scintillation counting method. Also on record: scale not given: the % may be the effect or the level left.
The target of test [17] is Bone morphogenetic protein receptor type-2 (Homo sapiens) (UniProt Q13873). Kind of test: Inhibition of recombinant human BMPR2 (172 to 734 residues) assessed as residual activity at 10 uM using myelin basic protein as substrate measured after 120 mins in presence of [gamma33P]ATP by scintillation counting method.
Test [18] concerns the target Mitogen-activated protein kinase kinase kinase 20 (Homo sapiens) (UniProt Q9NYL2). Kind of test: Inhibition of recombinant full-length human ZAK assessed as residual activity at 10 uM using MBP as substrate measured after 40 mins in presence of [gamma33P]ATP by scintillation counting method.
Test [19] has as its target Cyclin-dependent kinase-like 1 (Homo sapiens) (UniProt Q00532). Kind of test: Inhibition of recombinant human CDKL1 (1 to 303 residues) assessed as residual activity at 10 uM using RRRFRPASPLRGP as substrate measured after 120 mins in presence of [gamma33P]ATP by scintillation counting method.
Test [20] deals with RAC-beta serine/threonine-protein kinase (Homo sapiens), P31751 [S474D]. Kind of test: Inhibition of recombinant full-length human PKBbeta S474D mutant (120 to end residues) assessed as residual activity at 10 uM using GRPRTSSFAEGKK as substrate measured after 40 mins in presence of [gamma33P]ATP by scintillation counting method.

Structures are written as SMILES.

Sequence of eIF-2-alpha kinase GCN2 (Homo sapiens), Q9P2K8 [E556G] (Q9P2K8 whole entry E556G): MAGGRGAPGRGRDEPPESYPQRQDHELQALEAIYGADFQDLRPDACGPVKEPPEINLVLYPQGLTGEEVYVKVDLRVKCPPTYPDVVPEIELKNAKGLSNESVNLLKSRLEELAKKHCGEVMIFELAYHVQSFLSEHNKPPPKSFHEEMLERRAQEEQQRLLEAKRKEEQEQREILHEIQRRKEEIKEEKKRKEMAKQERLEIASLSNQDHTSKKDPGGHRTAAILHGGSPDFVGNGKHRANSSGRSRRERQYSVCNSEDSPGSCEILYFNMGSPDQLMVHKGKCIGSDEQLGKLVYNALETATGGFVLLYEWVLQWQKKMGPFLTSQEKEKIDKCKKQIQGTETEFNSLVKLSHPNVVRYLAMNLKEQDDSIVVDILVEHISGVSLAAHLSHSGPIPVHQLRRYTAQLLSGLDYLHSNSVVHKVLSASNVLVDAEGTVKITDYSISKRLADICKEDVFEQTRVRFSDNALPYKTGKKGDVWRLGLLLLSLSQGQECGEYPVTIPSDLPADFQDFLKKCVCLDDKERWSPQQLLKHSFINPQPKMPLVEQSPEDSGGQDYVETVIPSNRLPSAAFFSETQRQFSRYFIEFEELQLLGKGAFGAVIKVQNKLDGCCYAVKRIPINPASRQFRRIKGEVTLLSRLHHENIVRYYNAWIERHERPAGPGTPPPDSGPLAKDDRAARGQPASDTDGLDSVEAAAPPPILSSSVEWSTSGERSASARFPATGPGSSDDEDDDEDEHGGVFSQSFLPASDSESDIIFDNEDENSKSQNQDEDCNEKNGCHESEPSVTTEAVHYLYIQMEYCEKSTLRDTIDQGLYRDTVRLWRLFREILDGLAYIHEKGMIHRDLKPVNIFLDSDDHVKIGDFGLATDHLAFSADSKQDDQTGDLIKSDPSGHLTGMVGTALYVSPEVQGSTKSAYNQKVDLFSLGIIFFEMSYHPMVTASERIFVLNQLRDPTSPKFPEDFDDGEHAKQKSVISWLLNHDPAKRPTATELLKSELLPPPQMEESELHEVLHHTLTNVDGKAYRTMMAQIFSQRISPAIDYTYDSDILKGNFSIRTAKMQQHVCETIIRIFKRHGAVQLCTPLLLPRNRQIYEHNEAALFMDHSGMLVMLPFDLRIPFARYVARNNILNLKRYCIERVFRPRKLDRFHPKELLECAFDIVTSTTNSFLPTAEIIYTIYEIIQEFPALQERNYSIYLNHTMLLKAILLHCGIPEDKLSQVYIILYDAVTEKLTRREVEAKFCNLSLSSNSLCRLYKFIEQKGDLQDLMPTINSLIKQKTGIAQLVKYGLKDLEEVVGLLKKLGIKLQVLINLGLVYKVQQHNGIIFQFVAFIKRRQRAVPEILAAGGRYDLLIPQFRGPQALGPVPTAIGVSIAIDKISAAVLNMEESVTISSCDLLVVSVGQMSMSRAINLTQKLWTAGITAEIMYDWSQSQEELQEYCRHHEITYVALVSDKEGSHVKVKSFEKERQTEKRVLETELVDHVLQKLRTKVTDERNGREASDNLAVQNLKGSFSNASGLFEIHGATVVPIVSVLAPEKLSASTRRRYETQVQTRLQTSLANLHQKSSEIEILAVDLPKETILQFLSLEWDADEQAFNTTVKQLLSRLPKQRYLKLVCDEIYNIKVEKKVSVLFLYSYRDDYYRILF
Sequence of Serine/threonine-protein kinase DCLK2 (Homo sapiens) (Q8N568 whole entry): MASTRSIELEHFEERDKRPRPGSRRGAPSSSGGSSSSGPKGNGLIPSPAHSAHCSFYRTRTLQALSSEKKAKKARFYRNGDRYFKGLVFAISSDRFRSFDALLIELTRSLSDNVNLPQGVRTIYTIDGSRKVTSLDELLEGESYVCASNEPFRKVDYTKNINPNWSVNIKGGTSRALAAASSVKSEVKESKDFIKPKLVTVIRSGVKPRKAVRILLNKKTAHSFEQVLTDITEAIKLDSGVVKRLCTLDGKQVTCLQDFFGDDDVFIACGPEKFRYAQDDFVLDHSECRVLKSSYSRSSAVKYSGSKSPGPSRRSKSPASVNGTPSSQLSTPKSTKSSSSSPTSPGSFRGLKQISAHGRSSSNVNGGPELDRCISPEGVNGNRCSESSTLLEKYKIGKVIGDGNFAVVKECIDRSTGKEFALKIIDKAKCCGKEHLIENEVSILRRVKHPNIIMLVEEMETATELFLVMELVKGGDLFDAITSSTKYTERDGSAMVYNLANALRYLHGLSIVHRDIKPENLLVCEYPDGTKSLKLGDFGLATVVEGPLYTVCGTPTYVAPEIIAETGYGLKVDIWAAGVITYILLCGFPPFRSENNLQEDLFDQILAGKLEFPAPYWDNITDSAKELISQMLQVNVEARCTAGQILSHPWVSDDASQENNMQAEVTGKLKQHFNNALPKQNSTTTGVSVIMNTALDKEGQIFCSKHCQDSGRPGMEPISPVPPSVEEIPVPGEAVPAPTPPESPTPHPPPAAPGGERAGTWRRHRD
Sequence of Serine/threonine-protein kinase 17B (Homo sapiens) (O94768 whole entry): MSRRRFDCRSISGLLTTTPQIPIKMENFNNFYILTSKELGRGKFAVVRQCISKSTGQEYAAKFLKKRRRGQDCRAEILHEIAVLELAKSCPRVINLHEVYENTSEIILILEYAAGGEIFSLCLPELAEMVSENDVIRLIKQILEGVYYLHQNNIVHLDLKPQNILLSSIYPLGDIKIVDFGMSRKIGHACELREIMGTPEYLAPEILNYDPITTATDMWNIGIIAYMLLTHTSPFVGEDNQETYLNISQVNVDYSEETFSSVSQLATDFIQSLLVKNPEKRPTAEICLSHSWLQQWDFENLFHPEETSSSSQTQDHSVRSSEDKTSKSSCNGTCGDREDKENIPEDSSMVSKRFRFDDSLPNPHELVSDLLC

Regarding `Cc1cc(C)c(CNc2nc(Cl)nc3c2ncn3C2CCCC2)c(=O)[nH]1`, the Activity in test [1] is 110%; in test [2], 85.5%; in the test listed under Mus musculus, 106%; in test [3] it was 110%; with HCT-116 it was “Dose-dependent effect”; in [4] it was 128%. In addition, the Activity in test [5] amounted to 106%; in [6] it was 100%; in [7], 101%; in test [8], 109%; in the test listed under Homo sapiens, 109%; in test [9], 111%. Moreover, the Activity was 102% in test [10]; 104% in test [11]; 108% in test [12]; 104% in test [13]; 115% in [14]; 126% in test [15]. Further, the Activity in test [16] is 95.5%; in [17] it was 109%; in [18], 97%; in test [19], 122%; in test [20] it was 114%. For the same compound, the IC50 (usually the concentration needed to halve the response being measured) in the test with A549 was determined as 0.098 µM.

The values are drawn from ChEMBL document CHEMBL4311992, “Discovery of 3-(((9H-purin-6-yl)amino)methyl)-4,6-dimethylpyridin-2(1H)-one derivatives as novel tubulin polymerization inhibitors for treatment of cancer” (Eur J Med Chem, 2019).
